Data taken from patent US11446287B2, “Compounds and methods for EP300 or CBP modulation and indications therefor” (Opna Immuno-Oncology SA, priority 2019, dated 2022).

Target: T1, Recombinant human CBP containing the bromodomain (CBP-BD (1043-1159)) (Homo sapiens, UniProt Q92793)
T1 construct: Recombinant human CBP bromodomain (CBP-BD (1043-1159)); made in house; host or cells: E. coli BL21-CodonPlus (DE3), modified pET vector
Experiment: CBP Alphascreen binding assay
Conditions: read-out: CREBBP (CBP) IC50
Procedure: CBP Alphascreen Binding Assay
Binding of compounds of Formula (I) with CBP was assessed using Alphascreen™ binding assay. The inhibition of the interaction between the CBP bromodomain and its acetylated target protein was measured quantitatively using recombinant CBP, an acetylated Histone 3 peptide and AlphaScreen™ technology. In absence of inhibition of the CBP protein bound to AlphaScreen™ nickel chelate acceptor beads can interact with the acetylated Histone 3 peptide which was immobilized by the AlphaScreen™ Streptavidin coated beads. This interaction brings donor and acceptor beads in proximity. The close proximity allows the singlet oxygen produced by laser excitation of the donor beads to reach the acceptor beads and generate a luminescence signal. CBP inhibitors result in a decrease in the proximity signal through an inhibition of the CBP—acetylated peptide interaction.
Recombinant human CBP containing the bromodomain (CBP-BD (1043-1159)) was prepared and purified as described in protein expression and purification session. The peptide was human Histone H345-64K56Ac-Biotin (Anaspec CA, USA).
Protocol for CBP assay: All components are prepared in buffer composed of 50 mM HEPES pH 7.5, 50 mM NaCl, 0.01% BSA, 0.01% Triton X-100, 2 mM DTT. Test compounds and DMSO vehicle are diluted 1:50 in buffer and a 4 μL volume was transferred to an Alphaplate. 5.5 μL of CBP protein and 5.5 μL of peptide are added to wells containing 4 μL of various concentrations of test compounds of Formula (I) or DMSO vehicle in an Alphaplate (PerkinElmer GA, USA) and incubated for 1 hour at room temperature. 5 μL donor and acceptor bead mixture was then added with final concentrations of 7.5 μg/ml. 60 minutes after bead addition, Alpha signal was read on the Envision spectrometer (λEx 680 nm, λEm 520-620 nm). Final concentrations of bromodomain proteins and peptide are as shown below.
All data were normalized to the mean of 16 high and 16 low control wells on each plate. A four parameter curve fit of the following formula was then applied: Y=A+((B−A)/(1+((C/x)^D))) Where ‘A’ is the minimum, ‘B’ is the maximum, ‘C’ is the IC50 and ‘D’ is the Hill slope. Protein Expression and Purification
Recombinant human CBP bromodomain (CBP-BD (1043-1159)) was expressed in E. coli cells (in a modified pET vector) with an N-terminal six-His tag and purified using a combination of both IMAC (Ni-affinity) and size exclusion chromatography steps.
Recombinant CBP protein was expressed using the E. coli strain BL21-CodonPlus (DE3) (Agilent Technologies CA, USA). Cells were grown in Terrific Broth (TB) media to an OD600 of 0.92 at 37° C. at which temperature was reduced to 20° C., protein was induced with 1.0 mM isopropyl-β-D-thiogalactopyranoside (“IPTG”) for 20 hours and harvested by centrifugation at 8500×g for 20 minutes. Cells were re-suspended in 0.1M K2PO4 pH 8.0, 250 mM NaCl, 10% Glycerol, 0.75% NP-40, 25 mM Imidazole, with 0.2 mg/ml Lysozyme, 0.2 mM phenylmethanesulfonyl fluoride (“PMSF”), […] (“BME”), 25 μg/ml DNase I, incubated on ice for 30 minutes and lysed with a cell disruptor (MicroFluidics MA, USA). The lysate was clarified by centrifugation at 20,000×g for 1 hour. The protein was captured with Ni-NTA resin (Life Technologies, USA). Contaminating proteins were washed off with 40 mM HEPES pH 7.5, 500 mM NaCl, 5% Glycerol, 5 mM Imidazole, and 5 mM BME. Following 3× wash steps, protein was eluted using 400 mM Imidazole in 40 mM HEPES pH 7.5, 400 mM NaCl, and 5 mM BME. The protein was further purified using a size exclusion column (26/600 Superdex 200, GE Biosciences NJ, USA) in 40 mM HEPES pH 7.5, 250 mM NaCl, 5 mM BME. The protein was aliquoted and flash-frozen in liquid Nitrogen.

T1 sequence (Q92793 1081-1197): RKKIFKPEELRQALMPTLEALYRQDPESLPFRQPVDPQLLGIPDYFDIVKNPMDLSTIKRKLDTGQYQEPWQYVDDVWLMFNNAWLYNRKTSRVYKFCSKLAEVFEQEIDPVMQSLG

Structure (SMILES)	IC50 [µM]
Cc1noc(C)c1-c1cnc2c(c1)c(-c1ccc(C(=O)O)cc1OCc1ccccc1)cn2[C@@H](C)c1ccccn1 [P-0139, (S)-3-(benzyloxy)-4-(5-(3,5-dimethylisoxazol-4-yl)-1-(1-(pyridin-2-yl)ethyl)-1H-pyrrolo[2,3-b]pyridin-3-yl)benzoic acid]	0.0001 to 1
COc1ccc(C(=O)O)cc1-c1cn(C(C)c2ccccc2)c2cc(-c3c(C)noc3C)cnc12 (centres unmarked) [P-0140, 3-(6-(3,5-dimethylisoxazol-4-yl)-1-(1-phenylethyl)-1H-pyrrolo[3,2-b]pyridin-3-yl)-4-methoxybenzoic acid]	1 to 8
Cc1noc(C)c1-c1cnc2c(-c3cc(C(=O)O)ccc3Cl)cn(C(C)c3ccccc3)c2c1 (centres unmarked) [P-0141, 4-chloro-3-(6-(3,5-dimethylisoxazol-4-yl)-1-(1-phenylethyl)-1H-pyrrolo[3,2-b]pyridin-3-yl)benzoic acid]	0.0001 to 1
COc1cc(C(=O)O)ccc1-c1cn([C@@H](C)c2ccccn2)c2cc(-c3c(C)noc3C)cnc12 [P-0142, (S)-4-(6-(3,5-dimethylisoxazol-4-yl)-1-(1-(pyridin-2-yl)ethyl)-1H-pyrrolo[3,2-b]pyridin-3-yl)-3-methoxybenzoic acid]	0.0001 to 1
Cc1noc(C)c1-c1cnc2c(CC3CCC3)cn(-c3ccc(O)nc3)c2c1 [P-0143, 5-(3-(cyclobutylmethyl)-6-(3,5-dimethylisoxazol-4-yl)-1H-pyrrolo[3,2-b]pyridin-1-yl)pyridin-2-ol]	1 to 8
COc1cc(C(=O)O)cc(O)c1-c1cn([C@@H](C)c2ccccn2)c2ncc(-c3c(C)noc3C)cc12 [P-0144, (S)-4-(5-(3,5-dimethylisoxazol-4-yl)-1-(1-(pyridin-2-yl)ethyl)-1H-pyrrolo[2,3-b]pyridin-3-yl)-3-hydroxy-5-methoxybenzoic acid]	0.0001 to 1
Cc1noc(C)c1-c1cnc2c(c1)c(-c1ccnc(O)c1)cn2[C@@H](C)c1ccccn1 [P-0145, (S)-4-(5-(3,5-dimethylisoxazol-4-yl)-1-(1-(pyridin-2-yl)ethyl)-1H-pyrrolo[2,3-b]pyridin-3-yl)pyridin-2-ol]	8 to 1000
COc1cc(C(=O)O)cc(OC)c1-c1cn([C@@H](C)c2ccccn2)c2cc(-c3c(C)noc3C)cnc12 [P-0146, (S)-4-(6-(3,5-dimethylisoxazol-4-yl)-1-(1-(pyridin-2-yl)ethyl)-1H-pyrrolo[3,2-b]pyridin-3-yl)-3,5-dimethoxybenzoic acid]	1 to 8
CCOc1cc(C(=O)O)cc(OCC)c1-c1cn([C@@H](C)c2ccccn2)c2ncc(-c3c(C)noc3C)cc12 [P-0147, (S)-4-(5-(3,5-dimethylisoxazol-4-yl)-1-(1-(pyridin-2-yl)ethyl)-1H-pyrrolo[2,3-b]pyridin-3-yl)-3,5-diethoxybenzoic acid]	0.0001 to 1
CC[C@@H](c1ccccn1)n1cc(-c2cc(C(=O)O)ccc2Cl)c2ncc(-c3c(C)noc3C)cc21 [P-0148, (S)-4-chloro-3-(6-(3,5-dimethylisoxazol-4-yl)-1-(1-(pyridin-2-yl)propyl)-1H-pyrrolo[3,2-b]pyridin-3-yl)benzoic acid]	0.0001 to 1
Cc1noc(C)c1-c1cc2c(cn1)c(CC1CCC1)cn2-c1c(Cl)cc(C(=O)O)cc1Cl [P-0149, 3,5-dichloro-4-(3-(cyclobutylmethyl)-6-(3,5-dimethylisoxazol-4-yl)-1H-pyrrolo[3,2-c]pyridin-1-yl)benzoic acid]	0.0001 to 1
Cc1noc(C)c1-c1cnc2c(-c3ccccc3)cn(-c3c(Cl)cc(C(=O)O)cc3Cl)c2c1 [P-0150, 3,5-dichloro-4-(6-(3,5-dimethylisoxazol-4-yl)-3-phenyl-1H-pyrrolo[3,2-b]pyridin-1-yl)benzoic acid]	0.0001 to 1
Cc1noc(C)c1-c1cnc2c(C3=CCOCC3)cn(-c3c(Cl)cc(C(=O)O)cc3Cl)c2c1 [P-0151, 3,5-dichloro-4-(3-(3,6-dihydro-2H-pyran-4-yl)-6-(3,5-dimethylisoxazol-4-yl)-1H-pyrrolo[3,2-b]pyridin-1-yl)benzoic acid]	0.0001 to 1
COc1cc(C(=O)O)cc(OCC2CC2)c1-c1cn([C@@H](C)c2ccccn2)c2ncc(-c3c(C)noc3C)cc12 [P-0152, (S)-3-(cyclopropylmethoxy)-4-(5-(3,5-dimethylisoxazol-4-yl)-1-(1-(pyridin-2-yl)ethyl)-1H-pyrrolo[2,3-b]pyridin-3-yl)-5-methoxybenzoic acid]	0.0001 to 1
COc1cc(C(=O)O)cc(OCC(F)(F)F)c1-c1cn([C@@H](C)c2ccccn2)c2ncc(-c3c(C)noc3C)cc12 [P-0153, (S)-4-(5-(3,5-dimethylisoxazol-4-yl)-1-(1-(pyridin-2-yl)ethyl)-1H-pyrrolo[2,3-b]pyridin-3-yl)-3-methoxy-5-(2,2,2-trifluoroethoxy)benzoic acid]	0.0001 to 1
Cc1noc(C)c1-c1cnc2c(-c3ccc(C(=O)O)cc3)c(C(F)(F)F)n([C@@H](C)c3ccccn3)c2c1 [P-0154, (S)-4-(6-(3,5-dimethylisoxazol-4-yl)-1-(1-(pyridin-2-yl)ethyl)-2-(trifluoromethyl)-1H-pyrrolo[3,2-b]pyridin-3-yl)benzoic acid]	0.0001 to 1
Cc1noc(C)c1-c1cnc2c(-c3ccccc3Cl)cn(C(C)(c3ccccn3)c3ccccn3)c2c1 [P-0155, 4-(3-(2-chloropheny1)-1-(1,1-di(pyridin-2-yl)ethyl)-1H-pyrrolo[3,2-b]pyridin-6-yl)-3,5-dimethylisoxazole]	0.0001 to 1
Cc1noc(C)c1-c1cnc2c(c1)c(-c1ccc(C(=O)O)cc1OC(F)(F)F)cn2C(C1CC1)C1CC1 [P-0156, 4-(1-(dicyclopropylmethyl)-5-(3,5-dimethylisoxazol-4-yl)-1H-pyrrolo[2,3-b]pyridin-3-yl)-3-(trifluoromethoxy)benzoic acid]	0.0001 to 1
Cc1noc(C)c1-c1cnc2c(c1)c(-c1ccc(C(=O)O)cc1OC(F)(F)F)cn2CC1CC(F)(F)C1 [P-0157, 4-(1-((3,3-difluorocyclobutyl)methyl)-5-(3,5-dimethylisoxazol-4-yl)-1H-pyrrolo[2,3-b]pyridin-3-yl)-3-(trifluoromethoxy)benzoic acid]	0.0001 to 1
Cc1noc(C)c1-c1cnc2c(c1)c(-c1ccc(C(=O)O)cc1OC(F)(F)F)cn2-c1ccccn1 [P-0158, 4-(5-(3,5-dimethylisoxazol-4-yl)-1-(pyridin-2-yl)-1H-pyrrolo[2,3-b]pyridin-3-yl)-3-(trifluoromethoxy)benzoic acid]	0.0001 to 1
Cc1noc(C)c1-c1cnc2c(Cc3ccccn3)cn(-c3ccc(C(=O)O)cc3OC(F)(F)F)c2c1 [P-0159, 4-(6-(3,5-dimethylisoxazol-4-yl)-3-(pyridin-2-ylmethyl)-1H-pyrrolo[3,2-b]pyridin-1-yl)-3-(trifluoromethoxy)benzoic acid]	0.0001 to 1
Cc1noc(C)c1-c1cnc2c(-c3cnn(C)c3)c(C(F)(F)F)n([C@@H](C)c3ccccn3)c2c1 [P-0160, (S)-3,5-dimethyl-4-(3-(1-methyl-1H-pyrazol-4-yl)-1-(1-(pyridin-2-yl)ethyl)-2-(trifluoromethyl)-1H-pyrrolo[3,2-b]pyridin-6-yl)isoxazole]	0.0001 to 1
Cc1noc(C)c1-c1cnc2c(-c3cccc(CC(=O)O)c3)c(C(F)(F)F)n([C@@H](C)c3ccccn3)c2c1 [P-0161, (S)-2-(3-(6-(3,5-dimethylisoxazol-4-yl)-1-(1-(pyridin-2-yl)ethyl)-2-(trifluoromethyl)-1H-pyrrolo[3,2-b]pyridin-3-yl)phenyl)acetic acid]	0.0001 to 1
